Experimental data reported in PubChem BioAssay AID602251 (NMMLSC, 2012).
pEC50: −log10 of the molar value. Activity calls are given as the source filed them.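 Rule for the calls: active = fitted concentration giving half of the maximal binding block below 66 µM; inactive = the rest.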

Target: anti-desmoglein 3 scFv antibody binding to human desmoglein 3 (DSG3)
Test: inhibitors of anti-DSG3 scFv binding to DSG3, dose response, biochemical, DSG3-coupled beads, scFv-GFP, flow cytometry, Cherry Pick 1 (AID 602251);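 for binding response, lower = inhibition: 100% = DMSO vehicle binding and 0% = soluble DSG3 blocking control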
Conditions: not given

| SMILES | pEC50 |
| --- | --- |
| Nn1c(SCC(=O)Nc2cc(C(F)(F)F)ccc2Cl)nncc1=O | 4.53 |
| COCCCNC(=O)c1c(N)n(-c2ccc(S(N)(=O)=O)cc2)c2nc3ccccc3nc12 | 4.59 |
| NS(=O)(=O)c1ccc(NC(=O)c2cc(-c3cccs3)nc3ccccc23)cc1 | 4.76 |
| COc1ccc(N=C2S/C(=C\c3ccc(OCC(=O)O)cc3)C(=O)N2CCc2c[nH]c3ccccc23)cc1 | 4.80 |
| O=C(CSc1ccc(Cl)cc1)Nc1cccc(-c2nc3ccccc3[nH]2)c1 | 4.23 |
| O=C(NC1CCCCC1)C(c1ccc(O)cc1)N(CC1CCCO1)C(=O)C1COc2ccccc2O1 (stereo unspecified) | 4.42 |
| Cn1c(SCC(=O)NC2CCCCC2)nnc1-c1cc2cc(Cl)ccc2o1 | 4.68 |
| COc1ccccc1NC(=O)c1cc(C(=O)Nc2ccccc2OC)cc([N+](=O)[O-])c1 | 4.60 |
| CC(=O)Nc1cc(=O)c2cccnc2[nH]1 | 4.59 |
| COCCn1c(=NC(=O)CCS(=O)(=O)c2ccccc2)sc2cc(C(=O)OC)ccc21 | 4.60 |
| O=C(Nc1ccc(F)cc1)Nc1ccc([N+](=O)[O-])cn1 | 4.67 |
| O=C(O)c1cccc2c1NC(C(=O)O)C1CC(Sc3ccccc3[N+](=O)[O-])C(Cl)C21 (stereo unspecified) | 4.54 |
| O=c1c2c([N+](=O)[O-])cc([N+](=O)[O-])cc2sn1Cc1ccccc1 | 5.01 |
| O=c1c2ccccc2sn1-c1nccs1 | 4.90 |
| Cc1ccc(NC(=O)CN2C(=O)N/C(=C/c3cccn3-c3ccc(C(=O)O)cc3)C2=O)cc1 | 4.32 |
| O=C(O)c1cccc(-n2cccc2/C=C2/NC(=O)N(c3ccc(Cl)cc3)C2=O)c1 | 4.93 |
| CCCCOC(=O)Nc1sc2nc(C)cc(C)c2c1-n1cccc1 | 4.38 |
| O=C1c2ccccc2C(=O)N1Cc1nn2c(-c3ccc(Cl)cc3)nnc2s1 | 4.44 |

Same assay, conditions: at 66.1 µM (top of the series)

| SMILES | binding response, lower = inhibition |
| --- | --- |
| CC(C)OC(=O)CSc1nc2c(cc1C#N)CCCCC2 | inactive |
| CCCCN1C=C(C(=O)OC)C(c2ccccc2C(F)(F)F)C(C(=O)OC)=C1 | inactive |
| O=C(COC(=O)c1ccc(S(=O)(=O)N2CCc3ccccc3C2)cc1)NC1CCS(=O)(=O)C1 (stereo unspecified) | inactive |
| OCc1cn(-c2ccccc2)nc1-c1ccc(-c2nn(-c3ccccc3)cc2CO)cc1 | inactive |
| O=C(Nc1ccc(NS(=O)(=O)c2ccccc2)cc1)c1ccc(Cl)cc1 | inactive |
| NS(=O)(=O)c1ccc(-c2ccc(/C=C3\SC(=S)N(C4CCS(=O)(=O)C4)C3=O)o2)cc1 (stereo unspecified) | inactive |
| CN(C(=O)COC(=O)c1ccc(-c2ccc(O)cc2)cc1)C1CCS(=O)(=O)C1 (stereo unspecified) | inactive |
| N=c1oc2ccc3ccccc3c2cc1C(N)=S | inactive |
| COc1ccc(Cl)c(NC(=O)NCCN2CCN(c3ccccc3)CC2)c1 | inactive |
| COc1ccc(OC)c(NC(=O)c2nc(-c3ccccc3)oc2C)c1 | inactive |
| CCC(=O)N1CCc2cc(S(=O)(=O)N(C)c3ccc(Br)cc3)ccc21 | inactive |
| CCc1ccc(-c2cc(C(=O)Nc3ccc(S(=O)(=O)NC(C)=O)cc3)c3ccccc3n2)cc1 | inactive |
| O=C1OC(COc2ccc(Br)cc2)CN1c1ccccc1 (stereo unspecified) | inactive |
| Cc1ccc(-n2ncc3c(=O)[nH]c(SCC(=O)N4CCN(c5ccccc5)CC4)nc32)cc1 | inactive |
| O=C(NCCN1C(=O)S/C(=C\c2ccc(Cl)c(Cl)c2)C1=O)c1cnccn1 | inactive |
| O=C(Cc1ccccc1)Nc1ccc(NC(=O)c2cccs2)cc1Cl | inactive |
| COc1ccccc1-n1cnc2c(c1=O)c1nc3ccccc3nc1n2-c1ccc(C)c(C)c1 | inactive |
| CN1C(=O)/C(=C/c2cccn2-c2ccc3ccccc3c2)C(=O)NC1=S | inactive |
| CC(=O)Nc1ccc(-c2cc(-c3ccccc3)nc(-c3ccccc3)n2)cc1 | inactive |
| COc1cc(OC)cc(N(C(=O)C2COc3ccccc3O2)C(C(=O)NC2CCCCC2)c2ccc(O)cc2)c1 (stereo unspecified) | inactive |
| O=C(Nc1cccc2ccccc12)N1CCN(c2ccccc2)CC1 | inactive |

| SMILES | binding response, lower = inhibition |
| --- | --- |
| O=C(O)CCC(=O)NCCC1=c2ccccc2=N/C1=C\c1c(O)n(Cc2ccc(F)cc2)c(=S)[nH]c1=O | inactive |
| CCCNC(=O)c1c(N)n(-c2ccc(S(N)(=O)=O)cc2)c2nc3ccccc3nc12 | inactive |
| Cc1cc(NC(=O)CSc2nnc(-c3c[nH]c4ccccc34)n2-c2ccc(F)cc2)no1 | inactive |
| CCc1ccc(OCC(=O)Nc2ccc(N3CCN(C(=O)c4ccccc4)CC3)cc2)cc1 | inactive |
| CCOc1ccc2nc(NC(=O)c3ccc(S(=O)(=O)N4CCOCC4)cc3)sc2c1 | inactive |
| COc1ccc2cc(C#N)c(SCC(=O)N3CC(=O)Nc4ccccc43)nc2c1 | inactive |
| COc1ccccc1NS(=O)(=O)c1cccc(NC(=O)c2cc3ccccc3oc2=O)c1 | inactive |
| CC(C)(C)NS(=O)(=O)c1ccc(NC(=O)c2cc(-c3ccccc3)nc3ccccc23)cc1 | inactive |
| COC(=O)c1sc(NC(=O)c2cc(-c3ccccc3)nc3ccccc23)c(C#N)c1C | inactive |
| CCOC(=O)c1cc(-c2ccc(/C=C3/C(=O)N(c4ccc(C(=O)O)cc4)N=C3C)o2)ccc1Cl | inactive |
| CCOC(=O)c1cn(-c2ccc([N+](=O)[O-])cc2)c2cc(Cl)c([N+](=O)[O-])cc2c1=O | inactive |
| COc1ccc(CNC(=O)c2ccc(-c3ccccc3)cc2)cc1OC | inactive |
| COc1ccc(-c2cc(=O)oc3cc(OCC(=O)Nc4ccccn4)ccc23)cc1 | inactive |
| COc1ccc(CCNC(=O)COc2ccc(-c3ccc(C)cc3)cc2)cc1OC | inactive |
| Cc1cc(C)cc(N(CC(=O)NC2CCC(C)CC2)S(=O)(=O)c2c(C)noc2C)c1 (stereo unspecified) | inactive |
| COc1cc(OC)cc(C(=O)OCc2cc3ccccc3[nH]c2=O)c1 | inactive |
| Cc1ccc2nc(NC(=O)c3ccc4ncsc4c3)sc2c1 | inactive |
| COc1ccc(NC(=O)c2cc(-c3ccc(C)o3)nc3ccccc23)cc1OC | inactive |
| Cc1c([N+](=O)[O-])cc(C(=O)Nc2ccc(NC(=O)c3ccco3)cc2)cc1[N+](=O)[O-] | inactive |
| Cc1nc2ccccc2nc1OCC(=O)Nc1ccc2ccccc2c1 | inactive |
| CCOc1ccc(S(=O)(=O)N2CCN(C(=O)c3ccccc3Cc3ccccc3)CC2)cc1 | inactive |

| SMILES | binding response, lower = inhibition |
| --- | --- |
| CC(=O)c1c(C)n(-c2ccc(C)cc2)c2ccc(O)cc12 | inactive |
| NC(=O)c1ccc(NC(=O)CSc2nnc(-c3ccc4c(c3)OCO4)o2)cc1 | inactive |
| COc1cccc(C(C(=O)NC2CCCCC2)N(CCN2CCOCC2)C(=O)C2COc3ccccc3O2)c1 (stereo unspecified) | inactive |
| CCOc1ccccc1NCc1cc(=O)oc2cc(C)c(O)cc12 | inactive |
| COc1ccc(-c2cn3c(C)c(C(=O)Nc4cccc(NC(C)=O)c4)sc3n2)cc1 | inactive |
| COc1cc(C(C(=O)NC2CCCCC2)N(CCN2CCOCC2)C(=O)C2COc3ccccc3O2)cc(OC)c1OC (stereo unspecified) | inactive |
| O=C(Nc1ccc(-c2cn3c(n2)SCC3)cc1)c1ccc2c(c1)OCO2 | inactive |
| Cc1cccc(NC(=O)Cn2nnc(C(=O)NCc3cccs3)c2N)c1C | inactive |
| COc1ccccc1CNC(=O)COC(=O)c1ccc(S(=O)(=O)N2CCCCC2)cc1 | inactive |
| Cc1ccc(CSc2nnc(Nc3ccc(C)cc3)s2)cc1 | inactive |
| CS(=O)(=O)c1ccc2nc(NC(=O)Nc3ccccc3F)sc2c1 | inactive |
| S=c1[nH]ncn1/N=C/c1ccccc1 | inactive |
| CSCCC(NC(=O)C12CC3CC(CC(C3)C1)C2)C(=O)OCC(=O)c1ccc(C)cc1 (stereo unspecified) | inactive |
| O=C(COc1cc2oc(=O)c3c(c2cc1Cl)CCC3)Nc1ccccn1 | inactive |
| O=C(CSc1nnc(Cc2ccccc2)o1)N1CCc2ccccc21 | inactive |
| COc1cc(/C=C2/C(=N)N3OC(C)=CC3=NC2=O)ccc1OC(=O)c1ccco1 | inactive |
| C#CCn1c(=NC(=O)c2sc3ccccc3c2Cl)sc2cc(S(N)(=O)=O)ccc21 | inactive |
| Nc1c(C(=O)c2ccccc2)oc2ccc([N+](=O)[O-])cc12 | inactive |
| COc1ccccc1C(=O)Nc1ccc(Oc2ncnc3sc(-c4ccccc4)cc23)cc1 | inactive |
| CC(=O)c1c(C)n(-c2ccc(Cl)cc2)c2ccc(O)cc12 | inactive |
| CSc1ccccc1OCc1cc(C(=O)NCCC2=CCCCC2)no1 | inactive |
